Measured values published in ChEMBL document CHEMBL3885861, “Open TG-GATES”.

Organism: Rattus norvegicus
Assay: Open TG-GATES - Regimen: Single
Format: toxicity, organism-based, Sprague-Dawley
Set-up: regimen Single, gender Male, age 6 weeks
Settings: in vivo, po, 0 mg/kg, route gavage, dose level Control; for APTT / Bas / Eos / Fbg / Hb / Ht / Lym / MCH / MCHC / MCV / Mono / Neu / PT / Plat / RBC / Ret / WBC: tissue Blood; for KIDNEY_L / KIDNEY_R / KIDNEY_TOTAL: tissue Kidney; for LIVER: tissue Liver; for A/G / ALP / ALT / AST / BUN / CRE / Ca / Cl / DBIL / GLC / IP / K / LDH / Na / PL / RALB / TBIL / TC / TG / TP / gamma-GTP: tissue Plasma

In the case of `CCOC(=O)CCC(=O)O[C@H]1[C@H](O[C@@H]2[C@@H](C)[C@H](O[C@H]3C[C@@](C)(OC)[C@@H](O)[C@H](C)O3)[C@@H](C)C(=O)O[C@H](CC)[C@@](C)(O)[C@H](O)[C@@H](C)C(=O)[C@H](C)C[C@@]2(C)O)O[C@H](C)C[C@@H]1N(C)C` [ERYTHROMYCIN ETHYLSUCCINATE], the TERMINAL_BW (9 h) is reported as 212 g, the APTT (9 h) is reported as 22.4 s and the Bas (9 h) is reported as 0%. It also gave an Eos (9 h) of 0.6%, a Fbg (9 h) of 319.6 mg/dL and a Hb (9 h) of 13 g/dL. It also gave a Ht (9 h) of 39.6%, a Lym (9 h) of 81.2% and an MCH (9 h) of 20.4 pg. It also gave an MCHC (9 h) of 32.8%, an MCV (9 h) of 62.2 fL and a Mono (9 h) of 1.8%. The Neu (9 h) was 15.4%, the PT (9 h) was 15.9 s and the Plat (9 h) was 118.3 x10_4/uL. For the same molecule, the RBC (9 h) was 636.4 x10_4/ul, the Ret (9 h) was 7.4% and the WBC (9 h) was 106.6 x10_2/uL. It also gave a KIDNEY_L (9 h) of 1 g, a KIDNEY_R (9 h) of 1 g and a KIDNEY_TOTAL (9 h) of 1.9 g. The LIVER (9 h) was 9 g, the A/G (9 h) was 1.2 and the ALP (9 h) was 1414 IU/L. It also gave an ALT (9 h) of 38.4 IU/L, an AST (9 h) of 69.8 IU/L and a BUN (9 h) of 10.8 mg/dL. For the same molecule, the CRE (9 h) was 0.2 mg/dL, the Ca (9 h) was 10.5 mg/dL and the Cl (9 h) was 103.6 meq/L. The DBIL (9 h) was 0 mg/dL, the GLC (9 h) was 190.8 mg/dL and the IP (9 h) was 9.1 mg/dL. The K (9 h) was 4.2 meq/L, the LDH (9 h) was 161.4 IU/L and the Na (9 h) was 139.2 meq/L. The PL (9 h) was 124.4 mg/dL, the RALB (9 h) was 2.9 g/dL and the TBIL (9 h) was 0.016 mg/dL. For the same molecule, the TC (9 h) was 71.6 mg/dL, the TG (9 h) was 51.6 mg/dL and the TP (9 h) was 5.4 g/dL. The gamma-GTP (9 h) was 1 IU/L, the TERMINAL_BW (24 h) was 227 g and the APTT (24 h) was 20.9 s. It also gave a Bas (24 h) of 0%, an Eos (24 h) of 1% and a Fbg (24 h) of 327.8 mg/dL. For the same molecule, the Hb (24 h) was 13.5 g/dL, the Ht (24 h) was 40.3% and the Lym (24 h) was 83.8%. It also gave an MCH (24 h) of 21.4 pg, an MCHC (24 h) of 33.4% and an MCV (24 h) of 64.2 fL. The Mono (24 h) was 3.4%, the Neu (24 h) was 11% and the PT (24 h) was 15.9 s. It also gave a Plat (24 h) of 111.9 x10_4/uL, an RBC (24 h) of 629.4 x10_4/ul and a Ret (24 h) of 7.8%. For the same molecule, the WBC (24 h) was 111 x10_2/uL, the KIDNEY_L (24 h) was 1 g and the KIDNEY_R (24 h) was 1 g. The KIDNEY_TOTAL (24 h) was 2 g, the LIVER (24 h) was 10.5 g and the A/G (24 h) was 1.2. For the same molecule, the ALP (24 h) was 1574.2 IU/L, the ALT (24 h) was 37.6 IU/L and the AST (24 h) was 66.4 IU/L. It also gave a BUN (24 h) of 17.8 mg/dL, a CRE (24 h) of 0.1 mg/dL and a Ca (24 h) of 10.5 mg/dL. The Cl (24 h) was 106.6 meq/L, the DBIL (24 h) was 0 mg/dL and the GLC (24 h) was 211.4 mg/dL. It also gave an IP (24 h) of 8.5 mg/dL, a K (24 h) of 4.3 meq/L and an LDH (24 h) of 191.4 IU/L. For the same molecule, the Na (24 h) was 143 meq/L, the PL (24 h) was 156.2 mg/dL and the RALB (24 h) was 3 g/dL. The TBIL (24 h) was 0.024 mg/dL, the TC (24 h) was 81.4 mg/dL and the TG (24 h) was 119.4 mg/dL. It also gave a TP (24 h) of 5.4 g/dL and a gamma-GTP (24 h) of 1.2 IU/L.
